# Results from US12485106B2, “Methods of treating fibrotic liver diseases or conditions with indeglitazar” (PLEIOGENIX INC., priority 2023, dated 2025).
# What was measured:
# [1] = tested on: mouse model of human alcoholic hepatitis; assay: AH (NIAAA) mouse model, 8-week efficacy and safety study, alone and with prednisolone
# From the text: Mice were fed with the ethanol diet for four weeks, followed by 4 weeks of intervention (8 weeks total treatment).
# Livers were collected at the end-point from all mice and weighed. Liver samples were processed for histology to assess steatosis, inflammatory infiltrates and fibrosis. Briefly, liver tissue was fixed in 4% paraformaldehyde and paraffin-embedded, sectioned into 5 m thickness, and stained with hematoxylin-eosin (H&E), Oil-Red O staining, and Masson's trichrome staining.
# Safety testing: The safety of indeglitazar treatment was assessed by body weight measurements and full necropsy at endpoint. Mice were terminated from the experiment by isoflurane anesthesia and blood was collected by a cardiac bleed into EDTA-treated tubes, and then centrifuged to obtain plasma to conduct clinical chemistry including full liver and renal toxicology panel. A portion of the liver was analyzed for liver triglycerides and cholesterol levels by biochemical assays. […] Hearts were weighted and fixed in 10% NBF, paraffin embedded, and sectioned into 4-μm thick slices. H&E staining was used to investigate myocardial cell hypertrophy, and ventricle diameters by microscopy.
# [2] = tested on: alcoholic hepatitis; conditions: human, in vivo; cited from earlier work
# [3] = tested on: NASH; conditions: human, in vivo; cited from earlier work
# [4] = indeglitazar 50 mg/kg, prednisolone 10 mg/kg, vs EtOH-treated vehicle control
# [5] = indeglitazar 50 mg/kg, prednisolone 10 mg/kg, vs ethanol-treated vehicle control
# [6] = indeglitazar 50 mg/kg, prednisolone 10 mg/kg, vs vehicle+EtOH
# [7] = indeglitazar 50 mg/kg/day, prednisolone 10 mg/kg/day, vs ethanol-treated vehicle control
compound,measurement,setting,value
"C[C@]12C=CC(=O)C=C1CC[C@@H]1[C@@H]2[C@@H](O)C[C@@]2(C)[C@H]1CC[C@]2(O)C(=O)CO [Prednisolone, prednisolone, reference compound]","liver histopathology: steatosis, hepatocellular karyomegaly, and ballooning","[1]; indeglitazar 50 mg/kg, prednisolone 10 mg/kg, data not shown",no significant effect
same,effect on liver hydroxyproline,[1]; [4],no significant effect
same,effect on plasma adiponectin,[1]; [4],no significant effect
same,effect on ALT,[1]; [5],no significant effect
same,effect on AST,[1]; [5],no significant effect
same,effect on total bilirubin,[1]; [5],increased
same,decrease of plasma TGFβ,[1]; [6],56%
same,increase of adiponectin,[1]; [6],+3.4%
same,effect on body weight,[1]; [7],"Neither EtOH (vs no EtOH vehicle control), indeglitazar, or prednisolone had a significant effect"
same,effect on heart weight (actual),[1]; [7],"Neither EtOH (vs no EtOH vehicle control), indeglitazar, or prednisolone had a significant effect"
same,effect on overall survival,"[1]; indeglitazar 50 mg/kg/day, prednisolone 10 mg/kg/day, vs ethanol-treated vehicle control, male and female mice",no significant effect
same,effect on liver triglycerides,"[1]; prednisolone 10 mg/kg, vs vehicle+EtOH",no significant effect
same,increase of plasma TNF-α,"[1]; prednisolone 10 mg/kg, vs vehicle+EtOH, P<0.0001",123%
same,change of hydroxyproline (signed),"[1]; prednisolone 10 mg/kg, vs vehicle+EtOH, P>0.05",−7%
CC(=O)CCCCn1c(=O)c2c(ncn2C)n(C)c1=O [pentoxifylline],overall survival and liver damage in AH patients,[2],failed to improve overall survival or to decrease liver damage
vitamin E,"improvement of NASH, share of people treated",[3],about half
